Measured values as given in US6506339B1, “Method of sterilization” (Biomedical Design, Inc., priority 1997, dated 2003).

Key:
[1] = tested on: Bacillus subtilis (niger) spores; assay: Sterilization without isopropyl alcohol with porcine aortic root tissue (Example 4C); format: cell-based; conditions: 40° C., 1.5×10^6 spores with root tissue, no isopropyl alcohol
Method: An experiment similar to that of Example 4A is carried out using slightly higher concentrations of EDC and including porcine aortic root tissue. Bacillus subtilis (niger) spores at levels of 1.5×10^6 are inoculated for approximately 10 minutes in sterile cups each containing root tissue. Solutions (50 ml) of 50, 75 and 100 mM EDC in 10 mM TRIS, 0.85% NaCl, pH 6.5 are prewarmed to 40° C. and then rapidly added to the tissues in the cups. The cups containing the tissue are incubated at 40° C. for 6, 9, 12, 24 and 48 hours; then, the solutions are diluted and filtered in order to collect microorganisms. The valve tissue is washed for 20 minutes in a reciprocating shaker in the presence of peptone water containing Tween 80 in order to extract all spores of microorganisms from the tissue. The solutions from the shakers are filtered through the respective filters to which the original solutions were applied. The filters are rinsed with a 0.1% peptone water solution and incubated on TSA plates for up to 14 days. The plates are examined daily for growth.

[2] = tested on: Bacillus pumilus ATCC 27142 spores; assay: Sterilization in cups at about 38° C. (Example 6); format: cell-based; conditions: 25 mM EDC, 20% isopropanol
Method: (§1) In view of the foregoing verification, it was decided to test the effectiveness of the sterilization process against other bacteria using sterile cups. Added to each of the cups is 20 ml of 10 mM HEPES, 0.85%, Nacl, 20% isopropanol, pH 6.5, containing 25 mM EDC without any coupling enhancer, before the cups are placed in a incubator at about 38° C. When the solution temperature reached about 38° C., approximately 10^5-10^6 organisms were inoculated into the solution. The tests were carried out in triplicate. The following four isolated were tested in the form of sporous suspensions: Clostridium sporogenes ATCC 3584, Bacillus pumilus ATCC 27142, Chaetonium globosom ATCC 6205, and Microacus cinereus ATCC 16594. The following three isolates were tested as vegetative cells: Mycobacterium chelonae ATCC 35752, Methylbacterium extorquens ATCC 43645 and Trichosporon aquatile ATCC 22310. The inoculated systems were allowed to incubate for 1 hour, for 5 hours or for 24 hours, and the solutions were then filtered through a 0.45 micron filter. After rinsing, the filter was placed on a TSA plate as described in Example 1. Negative and positive controls indicate that the tests were valid. The results are set forth in Table D which follows wherein the number of CFUs in the inoculum is expressed as its log to the base 10, e.g. 3.4×10^5=5.5: […]

[3] = tested on: Mycobacterium chelonae ATCC 35752 vegetative cells; assay: Sterilization in cups at about 38° C. (Example 6); format: cell-based; conditions: 25 mM EDC, 20% isopropanol, 1 Hour, inoculum Log 10 5.15
Method: as §1

[4] = tested on: Trichosporon aquatile ATCC 22310 vegetative cells; assay: Sterilization in cups at about 38° C. (Example 6); format: cell-based; conditions: 25 mM EDC, 20% isopropanol, inoculum Log 10 4.3
Method: as §1

[5] = tested on: Clostridium sporogenes ATCC 3584 spores; assay: Sterilization in cups at about 38° C. (Example 6); format: cell-based; conditions: 25 mM EDC, 20% isopropanol
Method: as §1

[6] = tested on: Methylbacterium extorquens ATCC 43645 vegetative cells; assay: Sterilization in cups at about 38° C. (Example 6); format: cell-based, Methylobacterium extorquens; conditions: 25 mM EDC, 20% isopropanol, inoculum Log 10 6.94
Method: as §1

[7] = tested on: Bacillus subtilis (niger) spores; assay: Sterilization without isopropyl alcohol at 55° C. (Example 4D); format: cell-based
Method: An experiment similar to that of Example 4A was carried out using a higher temperature of 55°. Bacillus subtilis (niger) spores at levels of 1.32×10^6 (Log10=6.12) were inoculated for approximately 10 minutes in sterile cups. Solutions (50 ml) of 5 and 50 mM EDC in 10 mM TRIS, 0.85% NaCl, pH 6.5 were prewarmed to 55° C. and then rapidly added to the cups. The cups were incubated at 55° C. for 1 and 10 hours; the solutions were then diluted and filtered in order to collect microorganisms. The filters were rinsed with a 0.1% peptone water solution and incubated on TSA plates for up to 14 days. The plates are examined daily for growth. […] This can be extrapolated to achieving complete kill in 2-3 hours. […] Although this cannot be extrapolated to complete kill over a greater length of time because of the low level of EDC remaining after 10 hours, it is expected that sterilization treatment using a concentration at least about 15 mM EDC at 55° C. for 10 hours would result in complete kill.

With CCN=C=NCCCN(C)C.Cl [EDC, 1-ethyl-3(3-dimethylaminopropyl)carbodiimide hydrochloride] the inactivation of spores ([1]; 50 mM EDC, 6 hours) was “only partial kill”, the inactivation of spores ([1]; 50 mM EDC, 9 hours) was “complete inactivation of the spores” and the inactivation of spores ([1]; 75 mM EDC, 6 hours) was “effectively inactivates these spores”. The inactivation of spores ([1]; 75 mM EDC, 9 hours) was “complete inactivation of the spores”, the inactivation of spores ([1]; 100 mM EDC, 6 hours) was “effectively inactivates these spores” and the inactivation of spores ([1]; 100 mM EDC, 9 hours) was “complete inactivation of the spores”. For the same compound, the “Log REDUCTION” value ([2]; 1 Hour, inoculum Log 10 5.45) was 3.68, the “Log REDUCTION” value ([2]; 5 Hours, inoculum Log 10 5.45) was 4.41 and the “Log REDUCTION” value ([2]; 24 Hours, inoculum Log 10 5.22) was 5.22. For the same compound, the “Log REDUCTION” value [3] was 5.15, the “Log REDUCTION” value ([4]; 1 Hour) was 4.3 and the “Log REDUCTION” value ([4]; 5 Hours) was 4.3. The “Log REDUCTION” value ([5]; 1 Hour, inoculum Log 10 4.6) was 2.12, the “Log REDUCTION” value ([5]; 5 Hours, inoculum Log 10 4.6) was 3.02 and the “Log REDUCTION” value ([5]; 24 Hours, inoculum Log 10 3.65) was 3.65. The “Log REDUCTION” value ([6]; 1 Hour) was 6.94, the “Log REDUCTION” value ([6]; 5 Hours) was 6.94 and the log reduction ([7]; 5 mM EDC, 1 hour, 1.32×10^6 spores, no isopropyl alcohol) was 0.512. The log reduction ([7]; 5 mM EDC, 10 hours, 1.32×10^6 spores, no isopropyl alcohol) was 4.46, the inactivation of spores ([7]; 50 mM EDC, 10 hours, 1.32×10^6 spores, no isopropyl alcohol) was “effectively inactivated these spores” and the “time to complete kill (extrapolated)” value ([7]; 50 mM EDC, extrapolated from the one-hour log reduction) was 2 to 3 h. The log reduction ([7]; 50 mM EDC, one hour, 1.32×10^6 spores, no isopropyl alcohol) was 3.04.
